The target of the assay is T1, recombinant human GST-Syk (Homo sapiens, UniProt P43405).
T1 construct: purchased Carna Biosciences 08-176
Briefly: Homogeneous Time-Resolved Fluorescence (HTRF) assay for the recombinant human Syk enzyme. Type of assay: biochemical. The following applies: recombinant human GST-Syk 5 pM, ATP 25 μM, 10-dose titration 10 μM to 0.508 nM; read-out: rhSYK Activity IC50. Summed up:
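Detection used time-resolved fluorescence 30 min after adding a quench mix (40 mM EDTA, 15 mM Tris pH 7.5, 0.01% Tween 20) containing 2 nM Europium anti-pTyr antibody and 70 nM streptavidin-APC. This followed 45 min of room-temperature peptide phosphorylation by recombinant GST-tagged human Syk.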
For the compound `Cc1cc(Nc2nccc(C(F)(F)F)n2)cc(-c2cn(CCC(N)=O)nn2)c1` [Example 5.75, 3-[4-(3-methyl-5-{[4-(trifluoromethyl)pyrimidin-2-yl]amino}phenyl)-1H-1,2,3-triazol-1-yl]propanamide], the IC50 stood at 0.0316 µM. The result for `Cc1cc(Nc2cc(C(F)(F)F)ccn2)nc(-c2cn(CC3(O)CCOC3)nn2)c1` (racemic) [Example 5.13, 3-{[4-(4-methyl-6-{[4-(trifluoromethyl)pyridin-2-yl]amino}pyridin-2-yl)-1H-1,2,3-triazol-1-yl]methyl}tetrahydrofuran-3-ol] reads 0.0117 µM. The result for `Cc1cc(Nc2cc(C)c(Cl)cn2)nc(-c2cn(CC(C)(O)C(C)(C)O)nn2)c1` (stereo not shown) [Example 21.24, 1-(4-{6-[(5-chloro-4-methylpyridin-2-yl)amino]-4-methylpyridin-2-yl}-1H-1,2,3-triazol-1-yl)-2,3-dimethylbutane-2,3-diol] reads 0.0319 µM; that for `Cc1cc(Nc2cc(F)ccn2)nc(-c2cn(C(C)c3ccc(C(=O)O)cc3)nn2)c1` (stereo not shown) [Example 2.2, 4-[1-(4-{6-[(4-fluoropyridin-2-yl)amino]-4-methylpyridin-2-yl}-1H-1,2,3-triazol-1-yl)ethyl]benzoic acid], 0.00888 µM. The result for `Cc1cc(Nc2cc(C(F)(F)F)ccn2)nc(-c2cn(-c3ccc(C(=O)O)cc3)nn2)c1` [Example 7.1, 4-(4-(4-Methyl-6-((4-(trifluoromethyl)pyridin-2-yl)amino)pyridin-2-yl)-1H-1,2,3-triazol-1-yl)benzoic acid] reads 0.0111 µM. With `Cc1cc(Nc2cc(C(F)(F)F)ccn2)nc(-c2cn(CC(O)COCC(F)(F)F)nn2)c1` (stereo not shown) [Example 4.32, 1-[4-(4 methyl-6-{[4-(trifluoromethyl)pyridin-2-yl]amino}pyridin-2-yl)-1H-1,2,3-triazol-1-yl]-3-(2,2,2-trifluoroethoxy)propan-2-ol], the 50% inhibitory concentration (IC50) worked out at 0.0048 µM.

For the compound `Cc1cc(Nc2nccc(C(F)F)n2)cc(-c2cn(C3CCCCC3O)nn2)c1` (stereo not shown) [Example 4.34], the IC50 was 0.0041 µM. Next, `Cc1cc(Nc2nccc(C(F)F)n2)cc(-c2cn(C(C)C3CNC(=O)O3)nn2)c1` (single isomer, unassigned) [Example 7.2, 5-(1-(4-(3-((4-(Difluoromethyl)pyrimidin-2-yl)amino)-5-methylphenyl)-1H-1,2,3-triazol-1-yl)ethyl)oxazolidin-2-one]: 0.0033 µM. The result for `Cc1cc(Nc2ncc(F)c(C(F)F)n2)cc(-c2cn(CC3CNC(=O)O3)nn2)c1` (stereo not shown) [Example 7.36, 5-{[4-(3-{[4-(difluoromethyl)-5-fluoropyrimidin-2-yl]amino}-5-methylphenyl)-1H-1,2,3-triazol-1-yl]methyl}-1,3-oxazolidin-2-one] reads 0.0162 µM; that for `Cc1cc(Nc2cc(C(F)(F)F)ccn2)nc(-c2cn(C[C@H](O)CC(N)=O)nn2)c1` [Example 12.1], 0.0148 µM; that for `COC(=O)CNC(=O)[C@@H](C)n1cc(-c2cc(C)cc(Nc3cc(C(F)(F)F)ccn3)n2)nn1` [Example 1.57, methyl N-{(2R)-2-[4-(4-methyl-6-{[4-(trifluoromethyl)pyridin-2-yl]amino}pyridin-2-yl)-1H-1,2,3-triazol-1-yl]propanoyl}glycinate], 0.0928 µM. Next, `Cc1cc(Nc2cc(C)c(F)cn2)nc(-c2cn(CC(C)(O)C(C)(C)O)nn2)c1` (stereo not shown) [Example 21.22, 1-(4-{6-[(5-fluoro-4-methylpyridin-2-yl)amino]-4-methylpyridin-2-yl}-1H-1,2,3-triazol-1-yl)-2,3-dimethylbutane-2,3-diol]: 0.0858 µM. Turning to `COC(=O)[C@H]1CC[C@](O)(c2cn(-c3cc(C)cc(Nc4nccc(C(F)(F)F)n4)c3)nn2)CC1(C)C` [Example 15.10, methyl (1S,4R)-4-hydroxy-2,2-dimethyl-4-[1-(3-methyl-5-{[4-(trifluoromethyl)pyrimidin-2-yl]amino}phenyl)-1H-1,2,3-triazol-4-yl]cyclohexanecarboxylate], the IC50 worked out at 0.179 µM. Next, `Cc1cc(Nc2nccc(C(F)F)n2)cc(-c2cn(C3CCCCC3(C)O)nn2)c1` (single isomer, unassigned) [Example 7.20, 2-[4-(3-{[4-(difluoromethyl)pyrimidin-2-yl]amino}-5-methylphenyl)-1H-1,2,3-triazol-1-yl]-1-methylcyclohexanol]: 0.0154 µM; `Cc1cc(Nc2nccc(C(F)F)n2)cc(-c2cn(C(C)C(C)(O)CO)nn2)c1` (single isomer, unassigned) [Example 30.3, 3-(4-(3-((4-(Difluoromethyl)pyrimidin-2-yl)amino)-5-methylphenyl)-1H-1,2,3-triazol-1-yl)-2-methylbutane-1,2-diol]: 0.008 µM; `Cc1cc(Nc2nccc(C(F)(F)F)n2)cc(-c2cn(CC(C)(C)O)nn2)c1` [Example 5.55, 2-methyl-1-[4-(3-methyl-5-{[4-(trifluoromethyl)pyrimidin-2-yl]amino}phenyl)-1H-1,2,3-triazol-1-yl]propan-2-ol]: 0.0235 µM.

For `Cc1cc(Nc2cc(C(F)(F)F)ccn2)nc(-c2cn(C(C)C(N)=O)nn2)c1` (stereo not shown) [Example 1.25, 2-[4-(4-methyl-6-{[4-(trifluoromethyl)pyridin-2-yl]amino}pyridin-2-yl)-1H-1,2,3-triazol-1-yl]propanamide], the IC50 amounted to 0.0088 µM.

With `Cc1cc(Nc2nccc(C)n2)cc(-c2cn(CC(C)(O)C(C)(C)O)nn2)c1` (stereo not shown) [Example 21.21, 2,3-dimethyl-1-(4-{3-methyl-5-[(4-methylpyrimidin-2-yl)amino]phenyl}-1H-1,2,3-triazol-1-yl)butane-2,3-diol], the IC50 was found to be 0.191 µM.

Take `Cc1cc(Nc2cc(C(F)F)ccn2)nc(-c2cn(CC3CNCCO3)nn2)c1` (single isomer, unassigned) [Example 26.1, N-(4-(difluoromethyl)pyridin-2-yl)-4-methyl-6-(1-(morpholin-2-ylmethyl)-1H-1,2,3-triazol-4-yl)pyridin-2-amine]: the IC50 came to 0.0057 µM. Next, `Cc1cc(Nc2nccc(C(F)(F)F)n2)cc(-c2cn(CC3(O)CCC(C(=O)O)C(C)(C)C3)nn2)c1` (stereo not shown) [Example 3.4, 4-hydroxy-2,2-dimethyl-4-{[4-(3-methyl-5-{[4-(trifluoromethyl)pyrimidin-2-yl]amino}phenyl)-1H-1,2,3-triazol-1-yl]methyl}cyclohexanecarboxylic acid]: 0.0814 µM; `CCOC(=O)C1(n2cc(-c3cc(C)cc(Nc4cc(C(F)(F)F)ccn4)n3)nn2)CCC1` [Example 8.2, ethyl 1-[4-(4-methyl-6-{[4-(trifluoromethyl)-pyridin-2-yl]amino}-pyridin-2-yl)-1H-1,2,3-triazol-1-yl]cyclobutane-carboxylate]: 0.0718 µM. For the compound `CCOc1ccnc(Nc2cc(C)cc(-c3cn(C(C)c4ccc(C(=O)O)cc4)nn3)n2)c1` (stereo not shown) [Example 2.9, 4-[1-(4-{6-[(4-ethoxypyridin-2-yl)amino]-4-methylpyridin-2-yl}-1H-1,2,3-triazol-1-yl)ethyl]benzoic acid], the IC50 is 0.0587 µM. Consider `Cc1cc(Nc2nccc(OCCO)n2)cc(-c2cn(C[C@H](O)CO)nn2)c1` [Example 5.8, (2S)-3-[4-(3-{[4-(2-hydroxyethoxy)pyrimidin-2-yl]amino}-5-methylphenyl)-1H-1,2,3-triazol-1-yl]propane-1,2-diol], for which the IC50 worked out at 0.062 µM.

As to `COC(=O)C(C)CCn1cc(-c2cc(C)cc(Nc3cc(C(F)(F)F)ccn3)n2)nn1` (racemic) [Example 5.85, methyl 2-methyl-4-[4-(4-methyl-6-{[4-(trifluoromethyl)pyridin-2-yl]amino}pyridin-2-yl)-1H-1,2,3-triazol-1-yl]butanoate], the IC50 was found to be 0.08 µM. As to `Cc1cc(Nc2nccc(C(F)F)n2)cc(-c2cn(CC(C)(O)C(C)(C)O)nn2)c1` (stereo not shown) [Example 21.25, 1-[4-(3-{[4-(difluoromethyl)pyrimidin-2-yl]amino}-5-methylphenyl)-1H-1,2,3-triazol-1-yl]-2,3-dimethylbutane-2,3-diol], the IC50 worked out at 0.0136 µM. Next, `Cc1cc(Nc2cc(C(F)(F)F)ccn2)nc(-c2cn(CC(O)CF)nn2)c1` (racemic) [Example 5.93, 1-fluoro-3-[4-(4-methyl-6-{[4-(trifluoromethyl)pyridin-2-yl]amino}pyridin-2-yl)-1H-1,2,3-triazol-1-yl]propan-2-ol]: 0.006 µM. The result for `Cc1cc(Nc2nccc(C(F)(F)F)n2)cc(-n2cc([C@]3(O)CC[C@@H](C(=O)OC(C)(C)C)CC3)nn2)c1` [Example 15.6, tert-butyl cis-4-hydroxy-4-[1-(3-methyl-5-{[4-(trifluoromethyl)pyrimidin-2-yl]amino}phenyl)-1H-1,2,3-triazol-4-yl]cyclohexanecarboxylate] reads 0.85 µM; that for `CC(C)=CCn1cc(-c2cc(C)cc(Nc3cc(C(F)(F)F)ccn3)n2)nn1` [Example 5.37, 4-methyl-6-[1-(3-methylbut-2-en-1-yl)-1H-1,2,3-triazol-4-yl]-N-[4-(trifluoromethyl)pyridin-2-yl]pyridin-2-amine], 0.0302 µM; that for `Cc1cc(Nc2nccc(C(F)F)n2)cc(-c2cn(CC3OC(=O)NC3C)nn2)c1` (single isomer, unassigned) [Example 7.6, 5-((4-(3-((4-(difluoromethyl)pyrimidin-2-yl)amino)-5-methylphenyl)-1H-1,2,3-triazol-1-yl)methyl)-4-methyloxazolidin-2-one], 0.0102 µM. The result for `Cc1cc(Nc2nccc(OC(C)C)n2)cc(-c2cn(CC(C)(O)C(C)(C)O)nn2)c1` (stereo not shown) [Example 21.13, 2,3-dimethyl-1-[4-(3-methyl-5-{[4-(1-methylethoxy)pyrimidin-2-yl]amino}phenyl)-1H-1,2,3-triazol-1-yl]butane-2,3-diol] reads 0.0396 µM; that for `Cc1cc(Nc2ncc(F)c(C(F)F)n2)cc(-c2cn(Cc3ccc(O)nc3)nn2)c1` [Example 32, 5-((4-(3-((4-(difluoromethyl)-5-fluoropyrimidin-2-yl)amino)-5-methylphenyl)-1H-1,2,3-triazol-1-yl)methyl)pyridin-2-ol], 0.0068 µM.

(Values after US9586931B2 (Merck Sharp & Dohme Corp., priority 2012, dated 2017).)
